Results published in publication PMC4076210, “Discovery of Novel AKT Inhibitors with Enhanced Anti-Tumor Effects in Combination with the MEK Inhibitor” (PLoS ONE, 2014).
Like-named read-outs stand apart in the source and are kept apart here.

What was measured:
Type in all cases: biochemical
[1] = target: T1, Blk(m) (Mus musculus, UniProt P16277); assay: Kinase panel
T1 construct: purchased Millipore KinaseProfiler

[2] = target: T2, CaMKIδ(h) (Homo sapiens, UniProt Q8IU85); assay: Kinase panel
T2 construct: purchased Millipore KinaseProfiler
T2 sequence (Q8IU85 whole entry): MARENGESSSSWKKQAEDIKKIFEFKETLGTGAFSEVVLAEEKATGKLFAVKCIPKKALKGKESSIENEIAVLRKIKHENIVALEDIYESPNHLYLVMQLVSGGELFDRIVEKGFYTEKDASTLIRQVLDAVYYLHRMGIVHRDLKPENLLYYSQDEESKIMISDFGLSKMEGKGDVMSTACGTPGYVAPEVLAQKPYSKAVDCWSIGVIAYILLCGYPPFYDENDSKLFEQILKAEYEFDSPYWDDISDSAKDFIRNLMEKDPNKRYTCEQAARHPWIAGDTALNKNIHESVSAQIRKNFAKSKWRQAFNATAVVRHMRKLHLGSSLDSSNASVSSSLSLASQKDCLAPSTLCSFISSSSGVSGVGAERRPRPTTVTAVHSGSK

[3] = target: T3, FGFR1(h) (Homo sapiens, UniProt P11362); assay: Kinase panel
T3 construct: purchased Millipore KinaseProfiler
T3 sequence (P11362 22-822): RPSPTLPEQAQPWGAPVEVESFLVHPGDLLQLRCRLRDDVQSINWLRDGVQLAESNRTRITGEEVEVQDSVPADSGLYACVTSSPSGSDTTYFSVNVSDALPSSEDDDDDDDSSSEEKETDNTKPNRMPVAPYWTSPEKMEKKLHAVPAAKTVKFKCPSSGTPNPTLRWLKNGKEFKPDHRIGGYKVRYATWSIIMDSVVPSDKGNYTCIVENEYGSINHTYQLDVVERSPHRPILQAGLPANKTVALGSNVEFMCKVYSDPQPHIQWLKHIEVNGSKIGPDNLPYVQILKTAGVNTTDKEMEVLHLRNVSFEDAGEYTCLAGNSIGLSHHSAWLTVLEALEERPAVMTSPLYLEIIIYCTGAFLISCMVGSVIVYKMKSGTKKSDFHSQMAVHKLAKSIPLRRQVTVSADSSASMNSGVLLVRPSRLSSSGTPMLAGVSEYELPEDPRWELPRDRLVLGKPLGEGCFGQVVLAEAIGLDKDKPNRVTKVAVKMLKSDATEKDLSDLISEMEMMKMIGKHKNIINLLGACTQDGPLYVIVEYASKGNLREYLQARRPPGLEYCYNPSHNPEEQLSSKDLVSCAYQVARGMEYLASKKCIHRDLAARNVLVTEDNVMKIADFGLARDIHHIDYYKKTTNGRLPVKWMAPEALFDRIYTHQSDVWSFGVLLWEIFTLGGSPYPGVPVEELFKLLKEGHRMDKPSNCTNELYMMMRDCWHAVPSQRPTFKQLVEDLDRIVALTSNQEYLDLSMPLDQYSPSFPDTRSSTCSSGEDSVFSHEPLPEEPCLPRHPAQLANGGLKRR

[4] = target: T4, MELK(h) (Homo sapiens, UniProt Q14680); assay: Kinase panel
T4 construct: purchased Millipore KinaseProfiler

[5] = target: T5, MSK1(h) (Homo sapiens, UniProt O75582); assay: Kinase panel
T5 construct: purchased Millipore KinaseProfiler
T5 sequence (O75582 whole entry): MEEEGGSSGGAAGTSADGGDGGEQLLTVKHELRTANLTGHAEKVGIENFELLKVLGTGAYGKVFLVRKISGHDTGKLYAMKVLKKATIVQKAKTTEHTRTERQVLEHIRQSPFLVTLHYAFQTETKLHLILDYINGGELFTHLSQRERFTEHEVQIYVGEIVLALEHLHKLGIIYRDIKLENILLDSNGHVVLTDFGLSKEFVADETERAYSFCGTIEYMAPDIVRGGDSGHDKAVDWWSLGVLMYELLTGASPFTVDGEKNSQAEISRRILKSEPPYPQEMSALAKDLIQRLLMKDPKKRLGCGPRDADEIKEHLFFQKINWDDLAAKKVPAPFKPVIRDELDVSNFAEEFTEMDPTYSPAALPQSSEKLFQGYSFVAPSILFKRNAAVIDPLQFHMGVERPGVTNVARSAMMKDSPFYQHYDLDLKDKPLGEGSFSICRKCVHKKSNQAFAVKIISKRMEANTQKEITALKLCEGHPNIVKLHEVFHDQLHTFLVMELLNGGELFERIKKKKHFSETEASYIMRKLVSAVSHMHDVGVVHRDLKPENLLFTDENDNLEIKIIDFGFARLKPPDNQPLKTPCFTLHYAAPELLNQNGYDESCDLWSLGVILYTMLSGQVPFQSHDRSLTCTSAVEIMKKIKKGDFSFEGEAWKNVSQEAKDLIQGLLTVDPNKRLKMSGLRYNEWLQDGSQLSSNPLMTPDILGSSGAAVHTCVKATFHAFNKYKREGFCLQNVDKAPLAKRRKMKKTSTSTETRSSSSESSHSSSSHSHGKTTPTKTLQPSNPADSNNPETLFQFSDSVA

[6] = target: T6, NLK(h) (Homo sapiens, UniProt Q9UBE8); assay: Kinase panel
T6 construct: purchased Millipore KinaseProfiler
T6 sequence (Q9UBE8 1-527): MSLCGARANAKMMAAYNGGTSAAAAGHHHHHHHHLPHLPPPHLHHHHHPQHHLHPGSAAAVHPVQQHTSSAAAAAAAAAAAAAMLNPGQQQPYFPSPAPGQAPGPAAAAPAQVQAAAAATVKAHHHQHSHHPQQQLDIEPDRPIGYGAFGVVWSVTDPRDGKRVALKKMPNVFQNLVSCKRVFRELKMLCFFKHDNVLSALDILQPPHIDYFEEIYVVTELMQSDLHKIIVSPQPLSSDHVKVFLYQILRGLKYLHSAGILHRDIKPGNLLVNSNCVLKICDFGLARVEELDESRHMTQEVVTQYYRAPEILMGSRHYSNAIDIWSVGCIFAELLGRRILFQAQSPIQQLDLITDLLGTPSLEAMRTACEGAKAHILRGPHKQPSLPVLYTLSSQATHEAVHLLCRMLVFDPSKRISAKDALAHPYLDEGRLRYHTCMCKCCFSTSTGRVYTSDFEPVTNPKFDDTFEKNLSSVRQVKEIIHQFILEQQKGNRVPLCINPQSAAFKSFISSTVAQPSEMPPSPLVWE

[7] = target: T7, PKCθ(h) (Homo sapiens, UniProt Q04759); assay: Kinase panel
T7 construct: purchased Millipore KinaseProfiler
T7 sequence (Q04759 whole entry): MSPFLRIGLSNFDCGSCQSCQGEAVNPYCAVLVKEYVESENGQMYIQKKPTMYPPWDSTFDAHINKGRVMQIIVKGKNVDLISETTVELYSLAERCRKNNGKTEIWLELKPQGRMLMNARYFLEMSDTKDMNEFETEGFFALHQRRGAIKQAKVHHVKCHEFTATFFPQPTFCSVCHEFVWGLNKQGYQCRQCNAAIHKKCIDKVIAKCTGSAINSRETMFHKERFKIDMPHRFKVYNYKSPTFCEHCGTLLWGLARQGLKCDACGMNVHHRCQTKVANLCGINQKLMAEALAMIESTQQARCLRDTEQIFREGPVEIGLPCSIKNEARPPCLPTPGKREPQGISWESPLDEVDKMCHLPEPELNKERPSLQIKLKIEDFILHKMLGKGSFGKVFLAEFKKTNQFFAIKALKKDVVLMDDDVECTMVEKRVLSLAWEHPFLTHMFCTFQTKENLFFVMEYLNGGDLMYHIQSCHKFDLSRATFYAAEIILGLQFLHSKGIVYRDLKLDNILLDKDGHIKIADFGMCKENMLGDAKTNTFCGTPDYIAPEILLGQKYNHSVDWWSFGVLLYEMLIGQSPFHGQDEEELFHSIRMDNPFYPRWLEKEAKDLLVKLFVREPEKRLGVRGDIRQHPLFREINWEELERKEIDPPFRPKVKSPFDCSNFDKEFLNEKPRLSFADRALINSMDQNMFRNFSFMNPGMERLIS

[8] = target: T8, Plk3(h) (Homo sapiens, UniProt Q9H4B4); assay: Kinase panel
T8 construct: purchased Millipore KinaseProfiler

[9] = target: T9, PRAK(h) (Homo sapiens, UniProt Q8IW41); assay: Kinase panel
T9 construct: purchased Millipore KinaseProfiler
T9 sequence (Q8IW41 1-473): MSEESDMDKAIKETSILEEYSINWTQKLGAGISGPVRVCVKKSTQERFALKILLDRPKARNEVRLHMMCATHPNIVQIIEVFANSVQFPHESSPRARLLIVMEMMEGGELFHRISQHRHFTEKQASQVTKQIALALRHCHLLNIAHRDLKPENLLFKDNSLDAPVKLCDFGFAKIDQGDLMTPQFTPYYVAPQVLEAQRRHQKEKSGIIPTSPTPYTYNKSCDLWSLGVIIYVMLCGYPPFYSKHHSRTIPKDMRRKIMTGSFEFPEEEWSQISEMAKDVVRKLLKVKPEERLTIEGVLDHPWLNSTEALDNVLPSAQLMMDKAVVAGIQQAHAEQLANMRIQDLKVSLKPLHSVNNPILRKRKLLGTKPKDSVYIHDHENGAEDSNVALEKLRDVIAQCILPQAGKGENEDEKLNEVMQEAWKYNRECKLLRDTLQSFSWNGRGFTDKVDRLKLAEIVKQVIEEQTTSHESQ

[10] = target: T10, Pyk2(h) (Homo sapiens, UniProt Q14289); assay: Kinase panel
T10 construct: purchased Millipore KinaseProfiler
T10 sequence (Q14289 whole entry): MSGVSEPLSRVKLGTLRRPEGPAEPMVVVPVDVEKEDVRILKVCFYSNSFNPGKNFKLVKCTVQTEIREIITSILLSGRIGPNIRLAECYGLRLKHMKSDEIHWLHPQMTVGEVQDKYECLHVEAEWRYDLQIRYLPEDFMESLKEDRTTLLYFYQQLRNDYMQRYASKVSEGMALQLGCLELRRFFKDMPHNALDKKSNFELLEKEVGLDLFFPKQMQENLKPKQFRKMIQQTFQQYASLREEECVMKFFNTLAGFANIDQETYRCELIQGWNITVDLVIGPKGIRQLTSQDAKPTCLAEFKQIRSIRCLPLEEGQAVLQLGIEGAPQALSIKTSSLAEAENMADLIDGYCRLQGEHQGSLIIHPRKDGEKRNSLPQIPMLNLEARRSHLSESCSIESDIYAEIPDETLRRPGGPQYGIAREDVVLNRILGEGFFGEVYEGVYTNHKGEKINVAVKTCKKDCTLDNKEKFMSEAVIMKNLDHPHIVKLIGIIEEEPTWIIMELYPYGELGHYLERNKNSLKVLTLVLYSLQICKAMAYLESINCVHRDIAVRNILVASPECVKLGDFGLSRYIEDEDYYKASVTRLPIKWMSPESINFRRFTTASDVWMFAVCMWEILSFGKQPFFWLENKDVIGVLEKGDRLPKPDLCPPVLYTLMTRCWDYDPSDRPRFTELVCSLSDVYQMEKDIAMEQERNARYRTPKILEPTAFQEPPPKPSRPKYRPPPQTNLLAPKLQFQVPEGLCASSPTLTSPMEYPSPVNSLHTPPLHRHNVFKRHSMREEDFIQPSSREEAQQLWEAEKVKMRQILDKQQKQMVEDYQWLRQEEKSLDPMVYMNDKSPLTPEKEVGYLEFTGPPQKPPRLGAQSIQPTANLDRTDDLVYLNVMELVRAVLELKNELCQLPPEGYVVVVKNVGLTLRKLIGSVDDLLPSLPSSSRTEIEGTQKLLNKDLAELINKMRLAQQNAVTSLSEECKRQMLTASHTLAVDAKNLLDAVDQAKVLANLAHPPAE

[11] = target: T11, Rse(h) (Homo sapiens, UniProt Q06418); assay: Kinase panel
T11 construct: purchased Millipore KinaseProfiler
T11 sequence (Q06418 41-890): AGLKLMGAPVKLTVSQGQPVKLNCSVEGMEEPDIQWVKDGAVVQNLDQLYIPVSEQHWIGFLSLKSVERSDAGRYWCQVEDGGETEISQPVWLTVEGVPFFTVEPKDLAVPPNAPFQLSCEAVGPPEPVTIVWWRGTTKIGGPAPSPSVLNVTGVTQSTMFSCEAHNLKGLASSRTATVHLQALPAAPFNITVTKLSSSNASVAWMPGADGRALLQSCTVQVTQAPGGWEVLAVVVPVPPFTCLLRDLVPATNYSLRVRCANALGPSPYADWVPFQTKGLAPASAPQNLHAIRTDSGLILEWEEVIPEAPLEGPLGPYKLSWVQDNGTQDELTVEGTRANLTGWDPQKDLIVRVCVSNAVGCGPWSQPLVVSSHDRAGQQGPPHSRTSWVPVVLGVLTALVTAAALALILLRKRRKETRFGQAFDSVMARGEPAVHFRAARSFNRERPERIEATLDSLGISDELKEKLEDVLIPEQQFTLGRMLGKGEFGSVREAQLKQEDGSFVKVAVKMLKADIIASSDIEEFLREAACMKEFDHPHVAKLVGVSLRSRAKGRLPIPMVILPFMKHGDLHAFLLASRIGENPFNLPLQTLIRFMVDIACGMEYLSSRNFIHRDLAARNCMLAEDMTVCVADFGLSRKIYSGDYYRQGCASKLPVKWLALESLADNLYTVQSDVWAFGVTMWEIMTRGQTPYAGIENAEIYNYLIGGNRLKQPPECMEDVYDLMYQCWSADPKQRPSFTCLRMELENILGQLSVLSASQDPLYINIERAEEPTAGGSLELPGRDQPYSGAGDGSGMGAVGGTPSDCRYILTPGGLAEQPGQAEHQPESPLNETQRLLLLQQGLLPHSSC

[12] = target: T12, SAPK2a(T106M)(h) (Homo sapiens, UniProt Q16539, T106M); assay: Kinase panel
T12 construct: purchased Millipore KinaseProfiler
T12 sequence (Q16539 whole entry T106M): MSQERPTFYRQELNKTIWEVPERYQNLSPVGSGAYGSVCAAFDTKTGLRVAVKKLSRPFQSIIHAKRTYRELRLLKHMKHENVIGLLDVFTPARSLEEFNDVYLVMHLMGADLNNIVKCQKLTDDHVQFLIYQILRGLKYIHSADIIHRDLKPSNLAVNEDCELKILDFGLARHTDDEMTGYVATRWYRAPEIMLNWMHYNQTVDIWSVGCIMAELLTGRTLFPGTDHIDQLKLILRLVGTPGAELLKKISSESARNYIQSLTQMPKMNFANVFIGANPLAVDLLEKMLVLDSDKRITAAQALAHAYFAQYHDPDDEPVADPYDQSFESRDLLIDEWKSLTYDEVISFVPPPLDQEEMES

[13] = target: P70S6K (Homo sapiens, UniProt P23443); assay: Kinase IC50 assay
[14] = target: PKCι (Homo sapiens, UniProt P41743); assay: Kinase IC50 assay
[15] = target: PKG1α (Homo sapiens, UniProt Q13976); assay: Kinase IC50 assay

T1 sequence (P16277 2-499 limits assumed): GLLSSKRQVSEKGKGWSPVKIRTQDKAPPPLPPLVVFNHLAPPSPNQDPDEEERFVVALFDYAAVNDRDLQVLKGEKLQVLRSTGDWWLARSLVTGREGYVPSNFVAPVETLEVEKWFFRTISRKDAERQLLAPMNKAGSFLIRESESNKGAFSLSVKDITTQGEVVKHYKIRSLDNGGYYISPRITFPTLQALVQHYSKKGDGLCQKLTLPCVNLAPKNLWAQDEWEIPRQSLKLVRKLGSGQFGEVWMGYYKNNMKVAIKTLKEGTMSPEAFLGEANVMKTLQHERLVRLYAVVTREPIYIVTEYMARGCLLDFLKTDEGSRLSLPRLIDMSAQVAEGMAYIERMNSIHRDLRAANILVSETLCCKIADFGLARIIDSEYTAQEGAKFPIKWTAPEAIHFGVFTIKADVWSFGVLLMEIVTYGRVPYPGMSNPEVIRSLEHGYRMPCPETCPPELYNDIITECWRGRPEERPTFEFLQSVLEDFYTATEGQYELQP

SMILES: Cn1ncc(Cl)c1-c1cc(C(=O)N[C@H](CN)Cc2cccc(F)c2)sc1Cl [GSK2110183]
- inhibition at 0.5 µM [1]: -12%
- inhibition at 10 µM [1]: 9%
- inhibition at 0.5 µM [2]: 18%
- inhibition at 10 µM [2]: 78%
- inhibition at 0.5 µM [3]: -8%
- inhibition at 10 µM [3]: -5%
- inhibition at 0.5 µM [4]: 79%
- inhibition at 10 µM [4]: 97%
- inhibition at 0.5 µM [5]: 85%
- inhibition at 10 µM [5]: 98%
- inhibition at 0.5 µM [6]: -8%
- inhibition at 10 µM [6]: 32%
- inhibition at 0.5 µM [7]: 62%
- inhibition at 10 µM [7]: 94%
- inhibition at 0.5 µM [8]: -3%
- inhibition at 10 µM [8]: 16%
- inhibition at 0.5 µM [9]: -35%
- inhibition at 10 µM [9]: -57%
- inhibition at 0.5 µM [10]: -7%
- inhibition at 10 µM [10]: 2%
- inhibition at 0.5 µM [11]: 6%
- inhibition at 10 µM [11]: 51%
- inhibition at 0.5 µM [12]: -5%
- inhibition at 10 µM [12]: -6%
- IC50 [13]: 251 nM
- IC50 [14]: > 1000 nM
- IC50 [15]: 0.9 nM

SMILES: Cn1ncc(Cl)c1-c1cc(C(=O)N[C@H](CN)Cc2ccc(F)c(F)c2)oc1Cl [GSK2141795]
- inhibition at 0.5 µM ([1]; 0.5 µM, read-out: % Inhibition): -35%
- inhibition at 10 µM ([1]; 10 µM, read-out: % Inhibition): 8%
- inhibition at 0.5 µM ([2]; 0.5 µM, read-out: % Inhibition): 16%
- inhibition at 10 µM ([2]; 10 µM, read-out: % Inhibition): 84%
- inhibition at 0.5 µM ([3]; 0.5 µM, read-out: % Inhibition): -15%
- inhibition at 10 µM ([3]; 10 µM, read-out: % Inhibition): -6%
- inhibition at 0.5 µM ([4]; 0.5 µM, read-out: % Inhibition): 80%
- inhibition at 10 µM ([4]; 10 µM, read-out: % Inhibition): 97%
- inhibition at 0.5 µM ([5]; 0.5 µM, read-out: % Inhibition): 90%
- inhibition at 10 µM ([5]; 10 µM, read-out: % Inhibition): 95%
- inhibition at 0.5 µM ([6]; 0.5 µM, read-out: % Inhibition): 4%
- inhibition at 10 µM ([6]; 10 µM, read-out: % Inhibition): 46%
- inhibition at 0.5 µM ([7]; 0.5 µM, read-out: % Inhibition): 82%
- inhibition at 10 µM ([7]; 10 µM, read-out: % Inhibition): 94%
- inhibition at 0.5 µM ([8]; 0.5 µM, read-out: % Inhibition): -7%
- inhibition at 10 µM ([8]; 10 µM, read-out: % Inhibition): 59%
- inhibition at 0.5 µM ([9]; 0.5 µM, read-out: % Inhibition): 2%
- inhibition at 10 µM ([9]; 10 µM, read-out: % Inhibition): -17%
- inhibition at 0.5 µM ([10]; 0.5 µM, read-out: % Inhibition): 1%
- inhibition at 10 µM ([10]; 10 µM, read-out: % Inhibition): 16%
- inhibition at 0.5 µM ([11]; 0.5 µM, read-out: % Inhibition): 2%
- inhibition at 10 µM ([11]; 10 µM, read-out: % Inhibition): 33%
- inhibition at 0.5 µM ([12]; 0.5 µM, read-out: % Inhibition): -15%
- inhibition at 10 µM ([12]; 10 µM, read-out: % Inhibition): -33%
- IC50 [13]: 50 nM
- IC50 [14]: > 1000 nM
- IC50 [15]: < 1 nM
